Experimental data reported in patent publication US12600701B2, “N-acylhydrazonic compounds, use in the treatment of amyloid and non-amyloid degenerative aggregopathies, and pharmaceutical composition” (FACULDADES CATÓLICAS, priority 2020, dated 2026).

Tests used:
[1] = tested on: SynT-Sph1 aggregation in H4 cells; assay: Cellular model of α-synuclein (SynT-Sph1) aggregation in H4 cells; format: cell-based, human
Description: The isoniazid-derived hydrazone of formula (IV) was evaluated in greater detail in a cellular model of α-synuclein aggregation in H4 cells. This model consists of the co-transfection of an α-synuclein construct containing the first 83 amino acids of the EGFP protein linked to its C-terminal portion (SynT) with the synphilin-1 protein (Sph1), resulting in positive inclusions for α-Syn which can be observed by fluorescence microscopy after immunostaining.

[2] = Affinity constant for copper(II), Method of Continuous Variations (Job plot); format: binding
Description: Affinity constant for copper(II): The affinity constant of compound (IV) for copper(II) was determined using the Method of Continuous Variations, which consists of preparing mixtures of different molar fractions of ligand and metal, followed by measuring their UV-Vis absorbance.
From this information it is possible to calculate the complex formation constant which, for the compound of formula (IV), has a value of 5.66±0.08 at 25° C.

[3] = Experimental octanol-water partition coefficient (log P); format: physicochemical; settings: octanol / Tris buffer 10^−2 mol L^−1 pH 7.4, 37° C., triplicate
Description: Tris buffer 10^−2 mol L^−1 pH 7.4 was used as the aqueous phase. Both phases were prepared separately, and contained the hydrazone of interest at low concentrations (5×10^−5 mol L^−1). An ultraviolet/visible molecular absorption spectrum was acquired for each of the phases before mixing. The mixture was stirred at 37° C., protected from light. At the end of the incubation, the mixture was centrifuged for 10 minutes at 3000 rpm, and the layers were separated using pipettes. The concentrations in each phase were measured at the wavelength of greatest absorption of each hydrazone in the respective solvent, through calibration curves. Each compound was analyzed in triplicate and P was calculated as the average concentration ratio Co/Ca where Co is the concentration in the organic phase and Ca in the aqueous phase.
Experimental results were obtained using buffer with physiological pH, and the mixing and separation steps were performed at average human body temperature. This gives the experiment greater biological relevance compared to computational calculations. Even so, the values determined are in agreement with those calculated.

[4] = Stability in aqueous solution containing 1% DMSO (UV-Vis absorption); format: physicochemical; settings: 1% DMSO/water, 5×10^−5 mol L^−1, 17° C., over 4 days
Description: Stability in aqueous solution containing 1% DMSO: Compounds were prepared at low concentrations (5×10^−5 mol L^−1) in a solution containing 1% DMSO in ultra-pure water. Absorption spectra were obtained between 200 and 800 nm in a molecular absorption spectrophotometer at regular intervals over 12 hours. A final measurement was performed after four days. The room temperature was maintained at 17° C. throughout the experiment.

healthy rats = settings: earlier work of the group; cited from earlier work
[5] = tested on: mice with intracerebroventricular infusion of Aβ oligomers; settings: earlier work of the group, cited from earlier work
[6] = rats, intraperitoneal injection, HPLC detection in brain; earlier work of the group; cited from earlier work

Row | logP [3] | Compound | levels of α-Syn expression [1] | morphology of the aggregates ([1]; after treatment) | complex formation constant with copper(II) ([2]; ML-type complex (1:1), 25° C.) | formation constant compared with clioquinol ([2]; clioquinol under similar conditions) | decrease in the intensity of the hydrazonic band [4] | acute toxicity (healthy rats) | defensive responses related to fear and anxiety ([5]; healthy mice) | short- and long-term memory damage induced by Aβ oligomers ([5]; mice, intracerebroventricular infusion of Aβ oligomers) | crossing of the blood-brain barrier [6]
1 | 0.67 ± 0.03 | Cn1ccnc1/C=N/NC(=O)c1ccncc1 [(IV), 1-methyl-1H-imidazole-2-carboxaldehyde isonicotinoyl hydrazone] | does not change | less compact after treatment | 5.66±0.08 | approximately one thousand times lower | less than 2% |  |  |  | 
2 | 1.49 ± 0.13 | Cn1ccnc1/C=N/NC(=O)c1ccccc1 [(V), 1-methyl-1H-imidazole-2-carboxaldehyde benzoyl hydrazone] |  |  |  |  |  |  |  |  | 
3 |  | O=C(NN=Cc1ccc2cccc(O)c2n1)c1ccncc1 [INHHQ, 8-hydroxyquinoline-2-carboxaldehyde isonicotinoyl hydrazone] |  |  |  |  | approximately 12% | non-toxic | does not alter | capable of preventing | capable of crossing the blood-brain barrier
